Results on two compounds are retold here after patent publication US20120196918A1, “PREVENTING ISLET INFLAMMATION AND DYSFUNCTION AND MAINTAINING PROPER GLUCOSE LEVELS BY CONTROLLING eIF5A AND ITS HYPUSINATION” (priority 2009, published 2012).

The subject of one series is INS-1 cells. Description: Cell cycle analysis of INS-1 cells (propidium iodide cytometry). The class given is cell-based. The protocol: Because GC7 is known to be inactivated by the action amine oxidases, which are abundant in serum, typical studies with GC7 in the literature have used aminoguanidine to inhibit amine oxidases (16). […] To rule out possible adverse effects of GC7 on cell viability, quantitative 2 color fluorescence analysis of live (calcein-AM-positive) and dead (ethidium homodimer-1-positive) cells were performed using fluorescence cytometry.
For flow cytometry studies, INS-1 cells (serum starved or pretreated with GC7 as indicated in the figures) were stained with calcein-AM and ethidium homodimer 1 (Live/Dead® kit, Invitrogen) for 30 minutes, and 30,000 cells/sample were analyzed for green (living cells) and red (dead cells) fluorescence using a FACS Calibur (BD bioscience) instrument. For cell cycle analysis, 10^6 cells were washed in PBS and fixed in ice-cold 70% ethanol for 1 hour. After washing in PBS, cells were re-suspended in Guava cell cycle reagent (Millipore) and incubated at room temperature for 30 minutes. Intercalation of propidium iodide into cellular DNA was quantitated using a FACS Calibur instrument and the data analyzed for cell cycle status using Modfit software.

The next series concerns eIF5A-Hyp. Put plainly: New hypusine formation (3H-spermidine incorporation) in mouse islets. The class given is cell-based. The conditions noted are these: GC7 125 μM overnight. The text has this: eIF5A1 and eIF5A2 are the only proteins known to contain the unique amino acid hypusine at position 50. Hypusine is formed as a posttranslational modification of residue Lys50 in a reaction requiring spermidine and catalyzed by the sequential actions of the enzymes deoxyhypusine synthase (DHS) and deoxyhypusine hydroxylase (DOHH) (Chen, K Y, and Liu, A Y. Biochemistry and function of hypusine formation on eukaryotic initiation factor 5A. Biol Signals. 1997; 6(3):105-109). […] To further investigate the mechanism of eIF5A-regulated translation of Nos2, studies were performed following overnight incubation of cells with mimosine (an inhibitor of DOHH) and GC7 (an inhibitor of DHS). […] Similar data using GC7 were obtained in primary mouse islets (data not shown) and in human islets (FIGS. 5F and 5G). […]
Measurement of hvpusination: Approximately 100 islets or 1×10^6 INS-1 cells per condition were incubated with 1.5 μCi ^3H-spermidine (Perkin Elmer) in the presence of 1 mM aminoguanidine. […] Gels were visualized by fluorography, and bands were quantitated using Kodak Molecular Imaging Software v. […]

The subject of another series is eIF5A. Description: eIF5A nuclear-to-cytoplasmic translocation in INS-1 cells (immunofluorescence). The class given is cell-based, rat. Conditions: pretreatment, then cytokines 4 h. On the procedure:
Given the striking retention of Nos2 transcripts in the absence of eIF5A-Hyp, it was of interest to determine whether the intracellular distribution of eIF5A accounts for its effect on Nos2 nucleo-cytoplasmic shuttling. Immunofluorescence of eIF5A in fixed INS-1 cells, were thus performed. […] Upon treatment of cells with cytokines, there was a shift in the eIF5A distribution pattern from the nucleus to the cytoplasm.
Cytokine and inhibitor incubation studies: For cytokine incubation assays, a 1000× cocktail of cytokines containing 5 μg/ml IL1β, 10 μg/ml TNFα, and 100 μg/ml IFNγ (all prepared in 0.1% BSA in Tris-buffered saline) was applied at 1× final concentration to groups of 50 islets or 1×10^6 INS-1 (832/13) cells for a total of 4 h at 37° C. For GC7 incubation studies, GC7 was prepared at a stock concentration of 125 mM in 10 mM acetic acid and applied to cultures of 50 islets or 1×10^6 INS-1 cells to obtain the final concentrations indicted in the figures. […]
Immunofluorescence: Immunofluorescence of INS-1 cells proceeded essentially as described previously (71), using primary antibodies to eIF5A1 and secondary anti-mouse Alexa-488-conjugated antibody (Invitrogen), or by direct visualization of GFP fusion proteins at 488 nm. […] Quantitation of cytoplasic-to-nuclear ratios of eIF5A staining was performed using Axio-Vision Software, v. […]

Another series has as its system C57BL/6J mouse islets. Description: GSIS and GSCa of islets isolated from siRNA-injected mice. The class given is cell-based. On the procedure:
To clarify this, islets were isolated from siRNA-injected mice and their function assessed in vitro. […] In order to further characterize this improvement in islet glucose responsiveness, glucose-stimulated Ca2+ mobilization (GSCa) studies were also performed. GSCa is a measure of islet glucose sensitivity that captures the dynamics of the islet glucose response, which is similar to GSIS (31). The GSCa, as measured by the change in fura-2 AM fluorescence ratio after glucose stimulation, was increased in si-eIF5A-treated islets compared to controls, reflecting the functional improvement seen in GSIS (FIG. 3D). This improved GSCa relative to controls persisted 48 and 72 hours post-isolation (data not shown).
A short cytokine exposure (4 h) was utilized to assess early impairment in islet function independent of islet cell death. […] As shown in the inset to FIG. 3E, eIF5A levels remained persistently lower in the si-eIF5A group even after cytokine exposure.
Cytokine and inhibitor incubation studies: For cytokine incubation assays, a 1000× cocktail of cytokines containing 5 μg/ml IL1β, 10 μg/ml TNFα, and 100 μg/ml IFNγ (all prepared in 0.1% BSA in Tris-buffered saline) was applied at 1× final concentration to groups of 50 islets or 1×10^6 INS-1 (832/13) cells for a total of 4 h at 37° C. For GC7 incubation studies, GC7 was prepared at a stock concentration of 125 mM in 10 mM acetic acid and applied to cultures of 50 islets or 1×10^6 INS-1 cells to obtain the final concentrations indicted in the figures. Where needed, GC7 was protected from amine oxidases in serum by addition of 1 mM aminoguanidine (Sigma). Cells were incubated with GC7 overnight (˜16 h) at 37° C. prior to analysis. Cells were exposed to Leptomycin B (Cayman Chemicals) for 3 hours; leptomycin B was prepared at a 1000× stock concentration of 20 μg/ml in ethanol.
GSCa imaging assays: Intracellular Ca^2+ ((Ca2+)i) was measured using the ratiometric Ca^2+ indicator fura-2 AM using a modification of previously published methods (79). The glucose-stimulated (Ca2+)i response (GSCa) was defined as the difference between ratio measurements (340/380 nm fluorescence) in 11 mM vs. 3 mM glucose. Data were analyzed with IP Lab's software version 4.0 (Scanalytics).
GSIS and IPGTT studies: For GSIS studies using isolated islets, approximately 50 islets or 1×10^6 INS-1 cells per condition were washed and incubated in Krebs-Ringer HEPES-buffered (KRB) solution for one hour at 37° C., and then placed in KRB solution containing 3 mM or 11 mM glucose for one hour. […] Blood glucose was measured from samples taken from the tail vein before intraperitoneal injection of 1 g glucose per kg mouse weight, and at 10, 20, 30, 60, 90, 120, and 180 minutes after glucose administration using an A1phaTrak® glucometer (Abbott).

Where [1] appears, read: IL-1β, TNFα, IFNγ for 4 h, compared to controls.

For the compound `NCCCCCCCN=C(N)N` [GC7], in the series on INS-1 cells (3 days GC7 exposure), the cell cycle progression entry is “cell cycle block was clearly apparent”. Further, the “cell cycle progression (G1-S)” value in the series with INS-1 cells (overnight GC7, any concentration) is listed as “no significant effect on cell cycle progression”. Moreover, in the series on eIF5A-Hyp, the “new hypusine formation in mouse islets” value is reported as “effectively inhibits new hypusine formation”. In addition, in the series on eIF5A, the “cytokine-induced translocation of eIF5A” value was “failed to induce the nuclear to cytoplasmic translocation of eIF5A”.

With “5′-AACGGAAUGACUUCCAGCUGA-3′ (siSTABLE modification, further chemistry not given here) [si-eIF5A]”, in the series with C57BL/6J mouse islets (setting [1]), the “GSCa of isolated islets after cytokines” value is “significant preservation” and the “GSIS of isolated islets after cytokines” value was “significant preservation”. In addition, in the series on C57BL/6J mouse islets (islets from siRNA-injected mice, no cytokines), the “glucose-stimulated insulin secretion (GSIS) of isolated islets” value is “significant improvement in islet response to glucose stimulation”. In addition, in the series with C57BL/6J mouse islets (islets from siRNA-injected mice, no cytokines, compared to controls), the “glucose-stimulated Ca2+ mobilization (GSCa) of isolated islets” value was “increased”.
